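Assay format: 96-well plates, 48-hour exposure. GI50 = concentration required for 50% inhibition of growth. TGI: total growth inhibition.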

For 12 compounds, GI50 and TGI results are on record in PubChem BioAssay (NCI).

What all share (test): NCI-60 cell line screen, 48 h
Experiment [1] concerns PC-3 prostate.
The subject of experiment [2] is OVCAR-3 ovarian.
Experiment [3] has as its system SK-MEL-2 melanoma.
Experiment [4] concerns ACHN renal.
Experiment [5] relates to A498 renal.
The subject of experiment [6] is NCI/ADR-RES ovarian.
Experiment [7] relates to HCT-116 colon.
In experiment [8] the test system is DMS 114 small cell lung.
Experiment [9] concerns DMS 273 small cell lung.
The subject of experiment [10] is KM20L2 colon.

With `O=C1NC(=NCCc2ccc(Cl)cc2)S/C1=C\c1ccc2ncccc2c1`, the GI50 in [1] was over 25 µM; in experiment [2] it was over 25 µM; in experiment [3] it was 8.28 µM; in experiment [4], 24.6 µM; in experiment [5], 13.8 µM; in experiment [6], 19.5 µM. The GI50 in experiment [7] was 9.14 µM. Moreover, the TGI in [1], in experiment [2], in [3], in [4], in [5] and in experiment [6] was over 25 µM throughout. In [7], this compound yielded a TGI of over 25 µM.

For `OCc1ccc(N(Cc2ccc(F)cc2)Cc2ccc(F)cc2)cc1Cl`, the GI50 in experiment [1] was 9.08 µM; in experiment [2], 10.3 µM; in experiment [3] it was 10.6 µM; in experiment [4], 10.9 µM; in experiment [5] it was 0.18 µM; in experiment [6] it was 12.3 µM. The GI50 in experiment [7] was 2.87 µM. Moreover, the TGI in experiment [1] worked out at 22.8 µM; in experiment [2] it was 22.7 µM; in [3], 26.9 µM; in experiment [4] it was 23 µM; in [5], 0.989 µM; in experiment [6] it was 30.4 µM. Also, in [7], the TGI stood at 10.8 µM.

`CN(C)CCC(=O)Nc1ccc(-n2cc(-c3cccc(NC(=S)Nc4cccc(-c5cn(-c6ccc(NC(=O)CCN(C)C)cc6)nn5)c4)c3)nn2)cc1`: the GI50 is 85.9 µM in [1]; 16.4 µM in experiment [2]; 39.5 µM in experiment [3]; over 100 µM in experiment [4]; over 100 µM in experiment [5]; over 100 µM in experiment [6]. Moreover, in experiment [7], the GI50 was 12.7 µM. The TGI is over 100 µM in experiment [1]; 53.4 µM in experiment [2]; over 100 µM in experiment [3]; over 100 µM in experiment [4]; over 100 µM in experiment [5]; over 100 µM in experiment [6]. The compound also showed a TGI in experiment [7] of 40.4 µM.

Turning to `COc1ccc(-n2c(=S)sc3c(Cl)nc(C)nc32)c(OC)c1`, the GI50 was 2.37 µM in experiment [1]; 1.8 µM in [2]; 2.04 µM in experiment [3]; 2.08 µM in experiment [4]; 11.5 µM in experiment [5]; 13.2 µM in experiment [6]. Moreover, in [7], the GI50 is 1.83 µM. The TGI turned out to be 5.91 µM in experiment [1]; 3.26 µM in experiment [2]; 3.97 µM in [3]; 3.97 µM in [4]; 23.8 µM in experiment [5]; 72.9 µM in experiment [6]. The compound further showed a TGI in [7] of 3.71 µM.

`COc1cc(/C=N/NC(=O)c2cnn3c2NC(c2ccccc2)C3)ccc1OC1CCCC1` (configuration not stated): the GI50 was 0.503 µM in experiment [1]; 0.262 µM in experiment [2]; 0.948 µM in experiment [3]; 0.666 µM in experiment [4]; 0.407 µM in experiment [5]; 0.884 µM in experiment [6]. Besides, the GI50 in [7] was 0.518 µM. Moreover, the TGI is 3.44 µM in experiment [1]; 0.697 µM in experiment [2]; 6.06 µM in [3]; 6.04 µM in [4]; 2.28 µM in experiment [5]; 4.35 µM in [6]. Moreover, in [7], the TGI was 3.46 µM.

With `Cn1c(COC(=O)NCCc2ccccn2)nc2c(N3CCOCC3)nc(Cl)nc21`, the GI50 in experiment [1] is 1.64 µM; in experiment [2], 1.08 µM; in experiment [3] it was 1.88 µM; in [4] it was 1.27 µM; in [5] it was 1.53 µM; in [6], 2.62 µM. Further, the GI50 in experiment [7] was 0.847 µM. The TGI is 3.56 µM in experiment [1]; 2.58 µM in [2]; 3.81 µM in [3]; 2.57 µM in [4]; 6.36 µM in experiment [5]; 8.49 µM in experiment [6]. Moreover, the TGI in experiment [7] came to 2.25 µM.

For `O=c1c2cccnc2ncn1CCCN1CCCCC1`, the TGI in experiment [2], in experiment [3], in [4], in experiment [8], in [9] and in experiment [7] was over 100 µM each time.

For the compound `COc1ccc(-c2ccc(CC(=O)O)cc2)cc1OC`, the TGI in [2], in experiment [3], in experiment [4], in experiment [5], in [8] and in [10] was over 100 µM throughout. In [7], this compound displayed a TGI of over 100 µM.

`Oc1ccc(Cl)cc1C=Nc1cnc2ccccc2c1`: the TGI is over 88.4 µM in [1]; over 59.8 µM in experiment [2]; over 80.6 µM in experiment [3]; over 100 µM in [4]; over 100 µM in [5]; over 100 µM in experiment [6]. In experiment [7], this compound returned a TGI of over 100 µM.

For the compound `Cc1ccc(/C(=N/Nc2ccc([N+](=O)[O-])cc2)Sc2cc(Cl)c(C)cc2S(N)(=O)=O)cc1`, the GI50 in experiment [1] was 1.79 µM; in [2] it was 1.22 µM; in experiment [3], 4.9 µM; in [4], 2.37 µM; in experiment [5], 1.87 µM; in experiment [6], 2.03 µM. The GI50 in experiment [7] is 1.13 µM. The TGI in experiment [1] amounted to 4.47 µM; in experiment [2] it was 2.61 µM; in experiment [3], 20 µM; in [4], 6.51 µM; in [5], 4.55 µM; in experiment [6], 4.91 µM. In experiment [7], this compound had a TGI of 2.34 µM.

Take `COc1cc(C2CC(c3ccc(Nc4nc(NCCO)nc(NCCO)n4)cc3)=NN2c2cc(Cl)cc(Cl)c2)cc(OC)c1OC` (configuration not stated): the GI50 in experiment [1] is 1.04 µM; in experiment [2] it was 1.62 µM; in experiment [3], 15.5 µM; in experiment [4], 2.58 µM; in [5], 16.6 µM; in [6] it was 3.37 µM. Further, the GI50 in [7] is 1.28 µM. For the same compound, the TGI in experiment [1] was determined as 3.61 µM; in experiment [2], 3.13 µM; in [3] it was 28.9 µM; in [4], 13.1 µM; in [5], 30.2 µM; in experiment [6] it was 12.8 µM. In addition, the TGI in experiment [7] was determined as 2.67 µM.

`CC(=O)N1[C@H](C(=O)O)CS[C@H]1c1ccc(F)cc1`: the TGI in experiment [2] was over 100 µM; in experiment [4], over 100 µM; in experiment [5] it was over 100 µM; in [8], over 100 µM; in [7] it was 78.7 µM.
